Assays:
IKBKAP^Δ20 mRNA = assay: IKBKAP splicing assay, qPCR; assay type: cell-based; details: 24 hours of incubation
Protocol: (§1) Various cells lines were treated with the SMSMs described herein. RNA was then isolated, cDNA synthesized, qPCR performed and the levels of IKBKAP targets of the SMSMs were determined.
(§2) On the day of the experiment, a 96-well plate was seeded with the cell lines of interest. The cells were diluted with full growth media to a concentration of 2.0×10^5 cells/mL and 100 μL of cells were added to each well (20,000 cells per well). The cells were treated with a compound immediately after plating.
(§3) The compounds were then added to the cell plate using the HP compound dispenser. In the initial experiment, a top concentration of 10 μM and an 8 point 4-fold dilution scheme was used. The stock compounds were made at a concentration of 5 mM, and the DMSO concentration was set to 0.2%. DMSO was used to normalize all the compound-containing wells and the untreated cells.
(§4) The treated cells were incubated at 37° C. in a 5% CO2 incubator for the desired amount of time. Plates were placed in a plastic bag with a wet paper towel to prevent evaporation.
(§5) RNA was isolated using the Cells to CT kit (ThermoFisher, AM1728). The cells were washed once with 100 μL cold PBS. 50 μL of lysis buffer was added to each well/tube (49.5 μL lysis buffer+0.5 μL DNase I per well/tube). The lysis reaction was mixed and incubated at room temperature for 5 minutes. 5 μL of stop solution was added directly into each cell lysis reaction and mixed by pipetting up and down 5 times. The plates/tubes were incubated at room temperature for 2 minutes then placed on ice if the cDNA synthesis was to be performed immediately. Otherwise, the plates/tubes were stored at −80° C.
(§6) cDNA synthesis reactions were then performed. 40 μL RT master mix was added to PCR tubes or plate wells. 10 μL of RNA was added to each tube/well. The RT thermal cycler program was then run and tubes or plate wells were incubated at 37° C. for 1 hour, then at 95° C. for 5 minutes to deactivate the enzyme.
(§7) The qPCR was performed using a QuantStudio 6 instrument (ThermoFisher) and the following cycling conditions and according to the tables below. All samples and standards were analyzed in triplicate. Cycle 1: 2 minutes at 50° C. Cycle 2: 10 minutes at 95° C. Cycle 3 (repeat 40 times): 15 seconds at 95° C., 1 minute at 60° C.
(§8) The determined IKBKAP^FL and […] isoform quantities were then used to determine the IKBKAP^FL: IKBKAP^Δ20 ratio at increasing SMSM compound concentrations. The PPIA quantities were used in the normalization to account of cell proliferation effects of the compounds.
(§9) An assay to measure the IKBKAP^FL mRNA and IKBKAP^Δ20 mRNA simultaneously in cell wells was performed. The RNA values were measured relative to DMSO control and also included a housekeeping gene, PPIA to ensure data was consistent. The mRNA values were measured after 24 hours of incubation with the SMSM compounds.

IKBKAP^FL mRNA = assay: IKBKAP splicing assay, qPCR; assay type: cell-based; details: 24 hours of incubation
Protocol: as §1, §2, §3, §4, §5, §6, §7, §8, §9

A673 xenografts = assay: A673 xenograft tumor growth inhibition; assay type: in vivo; details: immunocompromised nude mice with pre-existing A673 xenografts
Protocol: Dose range and time course studies comparing anti-neoplastic effects of SMSM-167 and SMSM-151 against vehicle were conducted.
Female NCrNu mice were used. Age range of enrolment was 7-10 weeks. A total of 75animals were for the studies.
The A673 tumor cell line was maintained in vitro as a monolayer culture. […] The cells growing in an exponential growth phase were harvested and counted for tumor inoculation.
Each mouse were inoculated into aright flank with the single cell suspension of 95% viable tumor cells (5×10^6 cells/mouse) in serum-free RPMI 1640 Media for tumor development. Treatments were administered when mean tumor size reached approximately 75 mm^3. […]
Body weight were measured prior to tumor inoculation and prior to the treatment administration and then daily. Tumor size were measured 2-3 times per week in two dimensions using a caliper, and the volume were expressed in mm^3 using the formula: V=0.5×a×b^2 where a and b are the long and short diameters of the tumor, respectively. […]
Studies were performed to assess the effects of in vivo SMSM treatment on glioblastoma, breast, pancreatic, prostate, melanoma, lymphoma and Ewing sarcoma tumors. […] After SMSM treatment, mRNA was isolated from the xenografts and was analyzed by qRT-PCR.
Tumor size was measured 2 times per week in two dimensions using a caliper. […]

A673 cells = assay: Dose-response cell proliferation, crystal violet assay, 72 h; assay type: cell-based; details: ratio of IC50 in NHDF cells to IC50 in A673 cells
Protocol: Small molecule splicing modulators were tested in a dose-response assay using A673 cells and NHDF cells.
A673 cells or NHDF cells were first plated in 96-well plastic tissue culture plates (10,000 cells per well). The cells were treated with vehicle alone (DMSO), or increasing concentrations of SMSM compounds for 72 h. Following treatment, cell proliferation was determined using a crystal violet assay. The relative cell proliferation at each concentration was determined.

Row | SMILES | IC50 (IKBKAP^Δ20 mRNA) | EC50 (IKBKAP^FL mRNA) | tumor growth inhibition (TGI), in words (A673 xenografts) | Ratio NHDF/A673 IC50 (A673 cells)
1 | CN(c1ccc(-c2ccc(-c3cn[nH]c3)cc2O)nn1)[C@@H]1C[C@H]2CC[C@@H](C1)N2 [compound 138, 2-(6-(((1R,3s,5S)-8-azabicyclo[3.2.1]octan-3-yl)(methyl)amino)pyridazin-3-yl)-5-(1H-pyrazol-4-yl)phenol] | 201 to 1000 nM | 101 to 350 nM |  | 
2 | CN(c1ccc(-c2ccc(-c3cn[nH]c3)cc2O)nn1)[C@H]1C[C@]2(C)CC[C@](C)(C1)N2 [compound 151, 2-(6-(((1R,3s,5S)-1,5-dimethyl-8-azabicyclo[3.2.1]octan-3-yl)(methyl)amino)pyridazin-3-yl)-5-(1H-pyrazol-4-yl)phenol] |  |  | led to tumor growth inhibition | >350
3 | CN(c1ccc(-c2ccc(-c3cn[nH]c3)cc2O)nn1)[C@@H]1C[C@H]2CCC[C@@H](C1)N2 [compound 160, 2-(6-(((1R,3s,5S)-9-azabicyclo[3.3.1]nonan-3-yl)(methyl)amino)pyridazin-3-yl)-5-(1H-pyrazol-4-yl)phenol] | < 200 nM | < 100 nM | led to tumor growth inhibition | 

Source: patent US11008572B2, “Methods and compositions for modulating splicing” (SKYHAWK THERAPEUTICS, INC., priority 2017, dated 2021)
